# Results: patent US7608629B2, “(Piperidinyloxy)phenyl, (piperidinyloxy)pyridinyl, (piperidinylsulfanyl)phenyl and (piperidinylsulfanyl)pyridinyl compounds as 5-HT1F agonists” (Eli Lilly and Company, priority 2003, dated 2009)
# Counter-ions that a name gives are not always drawn.
# Tested on: rabbit saphenous vein
# Assay: Rabbit saphenous vein contraction
# Conditions: not given
# Method: Representative compounds of the present invention were tested in a rabbit saphenous vein contraction assay to measure their ability to mediate vasoconstriction. […] The tips of two 30-gauge stainless steel hypodermic needles bent into an L-shape were slipped into the polyethylene tubing. Vessels were gently pushed from the cannula onto the needles. The needles were then separated so that the lower one was attached with thread to a stationary glass rod and the upper one was tied with thread to the transducer. […] An initial optimum resting force of 1 gm was applied to the saphenous vein. Isometric contractions were recorded as changes in grams of force on a Beckman Dynograph with Statham UC-3 transducers and microscale accessory attachments. Tissues were allowed to equilibrate 1 to 2 hours before exposure to drugs. Cumulative agonist concentration-response curves were generated in tissues and no tissue was used to generate more than two agonist concentration-response curves. […] This vasoconstriction assay measures two important parameters, saphenous vein contraction (EC50) and maximal contraction as a % maximal KCl response (% man KCl).
row,corrected vasoconstriction EC50 (EC50 divided by %max KCl),SMILES
1,0.0103 µM,CNS(=O)(=O)Cc1ccc2[nH]cc(CCN(C)C)c2c1 [sumatriptan]

# Same assay, conditions: Oryctolagus cuniculus
row,EC50,SMILES
1,0.66 µM,CNS(=O)(=O)Cc1ccc2[nH]cc(CCN(C)C)c2c1 [sumatriptan]

# Tested on: not given
# Assay: not given
# Conditions: not given
row,SMILES,melting point
1,CC1CN(C)CCC1Oc1cccc(NC(=O)c2ccc(F)cc2Cl)n1.Cl (stereo not drawn),155 to 160 °C
2,CCN1CCC(Oc2cccc(NC(=O)c3ccc(F)cc3Cl)c2)CC1.Cl,91 °C
3,CN1CCC(Oc2cccc(NC(=O)c3ccccc3OC(F)(F)F)n2)CC1.Cl,88.7 °C
4,CN1CCC(Oc2cccc(NC(=O)c3ccccc3Br)n2)CC1.Cl,104.3 °C
5,CN1CCC(Oc2cccc(NC(=O)c3ccc(F)c(F)c3F)n2)CC1.Cl,182.4 °C (dec.)
6,CN1CCC(Oc2cccc(NC(=O)c3cc(F)c(F)c(F)c3)n2)CC1.Cl,171.4 °C (dec.)
7,CN1CCC(Oc2cccc(NC(=O)c3ccccc3OC(F)(F)F)c2)CC1.Cl,119 to 121 °C
8,CN1CCC(Oc2cccc(NC(=O)c3c(F)cc(F)cc3F)n2)CC1.Cl,264 to 266 °C
9,CN1CCC(Oc2cccc(NC(=O)c3ccccc3C(F)(F)F)c2)CC1.Cl,135 to 136 °C
10,CN1CCC(Oc2cccc(NC(=O)c3cccnc3)c2)CC1.Cl,73 to 74 °C
11,CN1CCC(Oc2cccc(NC(=O)c3ccncc3)c2)CC1.Cl,172 to 175 °C
12,CN1CCC(Oc2cccc(NC(=O)C3CCCCC3)c2)CC1.Cl,141 to 142 °C
13,CC(C)C(=O)Nc1cccc(OC2CCN(C)CC2)c1.Cl,104 to 105 °C
14,CN1CCC(Oc2cc(F)cc(NC(=O)c3ccc(F)cc3)c2)CC1.Cl,150 °C
15,CN1CCC(Oc2cccc(NC(=O)c3ccc(F)cc3)n2)CC1(C)C (stereo not drawn) (as salt: salt),145 °C
16,CN1CCC(Oc2cccc(NC(=O)c3ccc(F)cc3)n2)CC1.Cl (hydrate or solvate),203 to 205 °C
17,CN1CCC(Oc2cccc(NC(=O)c3ccncc3)n2)CC1.Cl (hydrate or solvate),254 to 256 °C
18,Cl.O=C(Nc1cccc(OC2CCNCC2)n1)c1ccc(F)cc1 (hydrate or solvate),251 to 253 °C
19,"C[C@H]1C[C@@H](Oc2cccc(NC(=O)c3ccc(F)cc3Cl)c2)CCN1C.Cl (single isomer, unassigned)",152 °C
20,"C[C@H]1C[C@H](Oc2cccc(NC(=O)c3ccc(F)cc3Cl)c2)CCN1C.Cl (single isomer, unassigned)",145 °C
21,"C[C@H]1C[C@H](Oc2cc(NC(=O)c3ccc(F)cc3Cl)ccc2C(C)(C)C)CCN1C.Cl (single isomer, unassigned)",260 °C
22,"C[C@H]1CN(C)CC[C@H]1Oc1cccc(NC(=O)C2=CC=C(F)CC2Cl)n1 (single isomer, unassigned) (as salt: salt)",238 °C
23,"C[C@@H]1CN(C)CC[C@@H]1Oc1cccc(NC(=O)C2=CC=C(F)CC2Cl)n1 (single isomer, unassigned) (as salt: salt)",238 °C

# The next lines start with the values.
row,melting point,SMILES
1,153 to 154 °C,CN1CCC(Oc2cccc(NC(=O)c3c(F)cccc3Cl)c2)CC1.Cl
2,213 °C,CN1CCC(Oc2cccc(NC(=O)c3ccc(F)cc3Cl)c2)CC1.Cl
3,262 °C (dec.),CCN1CCC(Oc2cccc(NC(=O)c3c(F)cccc3Cl)c2)CC1.Cl
4,136 °C (dec.),CN1CCC(Oc2cccc(NC(=O)c3c(F)cc(F)cc3F)c2)CC1.Cl
5,139.6 °C,CN1CCC(Oc2cccc(NC(=O)c3c(F)cccc3Cl)n2)CC1.Cl
6,261.4 °C,CN1CCC(Oc2cccc(NC(=O)c3c(F)cccc3F)n2)CC1.Cl
7,95 to 97 °C,CN1CCC(Oc2cc(NC(=O)c3ccccc3OC(F)(F)F)ccc2Cl)CC1.Cl
8,259 °C (dec.),CN1CCC(Oc2cc(NC(=O)c3ccccc3Cl)ccc2Cl)CC1.Cl
9,146 to 148 °C,CN1CCC(Oc2cc(NC(=O)c3ccccc3Br)ccc2Cl)CC1.Cl
10,261 °C (dec.),CN1CCC(Oc2cc(NC(=O)c3c(F)cccc3F)ccc2Cl)CC1.Cl
11,257 °C (dec.),CN1CCC(Oc2cc(NC(=O)c3ccc(F)cc3F)ccc2Cl)CC1.Cl
12,259 to 260 °C,CN1CCC(Oc2cc(NC(=O)c3c(F)cccc3Cl)ccc2Cl)CC1.Cl
13,269 °C (dec.),CN1CCC(Oc2cccc(NC(=O)c3ccccc3Br)c2)CC1.Cl
14,> 270 °C,CN1CCC(Oc2cc(NC(=O)c3c(F)cc(F)cc3F)ccc2Cl)CC1.Cl
15,136 to 138 °C,CN1CCC(Oc2cccc(NC(=O)c3c(F)cccc3F)c2)CC1.Cl
16,170 to 171 °C,CN1CCC(Oc2cccc(NC(=O)c3c(Cl)cccc3Cl)c2)CC1.Cl
17,131 to 133 °C,CN1CCC(Oc2cccc(NC(=O)c3ccc(Cl)cc3Cl)c2)CC1.Cl
18,135 to 137 °C,CN1CCC(Oc2cccc(NC(=O)c3ccc(F)cc3Cl)n2)CC1.Cl (hydrate or solvate)
19,269 to 271 °C,CN1CCC(Oc2cccc(NC(=O)c3ccc(F)cc3F)n2)CC1.Cl (hydrate or solvate)
20,88 to 90 °C,CN1CCC(Oc2cccc(NC(=O)c3ccccc3Cl)n2)CC1.Cl (hydrate or solvate)
